Measured values as given in patent publication US20240384268A1, “Oligonucleotides” (Hudson Institute of Medical Research, priority 2021, published 2024).
In the oligonucleotide strings, read from the 5' end, every base follows the letter of its sugar. An asterisk marks phosphorothioate; unmarked linkages are phosphodiester. Other units and linkages are bracketed, terminal groups are in braces. A string of capitals states the bases alone. d = 2'-deoxy (DNA); m = 2'-O-methyl

Target: T1, human TLR9 (Homo sapiens, UniProt Q9NR96)
T1 construct: HA; host or cells: 293XL-hTLR9-HA (HEK293)
T1 sequence (Q9NR96 26-1032): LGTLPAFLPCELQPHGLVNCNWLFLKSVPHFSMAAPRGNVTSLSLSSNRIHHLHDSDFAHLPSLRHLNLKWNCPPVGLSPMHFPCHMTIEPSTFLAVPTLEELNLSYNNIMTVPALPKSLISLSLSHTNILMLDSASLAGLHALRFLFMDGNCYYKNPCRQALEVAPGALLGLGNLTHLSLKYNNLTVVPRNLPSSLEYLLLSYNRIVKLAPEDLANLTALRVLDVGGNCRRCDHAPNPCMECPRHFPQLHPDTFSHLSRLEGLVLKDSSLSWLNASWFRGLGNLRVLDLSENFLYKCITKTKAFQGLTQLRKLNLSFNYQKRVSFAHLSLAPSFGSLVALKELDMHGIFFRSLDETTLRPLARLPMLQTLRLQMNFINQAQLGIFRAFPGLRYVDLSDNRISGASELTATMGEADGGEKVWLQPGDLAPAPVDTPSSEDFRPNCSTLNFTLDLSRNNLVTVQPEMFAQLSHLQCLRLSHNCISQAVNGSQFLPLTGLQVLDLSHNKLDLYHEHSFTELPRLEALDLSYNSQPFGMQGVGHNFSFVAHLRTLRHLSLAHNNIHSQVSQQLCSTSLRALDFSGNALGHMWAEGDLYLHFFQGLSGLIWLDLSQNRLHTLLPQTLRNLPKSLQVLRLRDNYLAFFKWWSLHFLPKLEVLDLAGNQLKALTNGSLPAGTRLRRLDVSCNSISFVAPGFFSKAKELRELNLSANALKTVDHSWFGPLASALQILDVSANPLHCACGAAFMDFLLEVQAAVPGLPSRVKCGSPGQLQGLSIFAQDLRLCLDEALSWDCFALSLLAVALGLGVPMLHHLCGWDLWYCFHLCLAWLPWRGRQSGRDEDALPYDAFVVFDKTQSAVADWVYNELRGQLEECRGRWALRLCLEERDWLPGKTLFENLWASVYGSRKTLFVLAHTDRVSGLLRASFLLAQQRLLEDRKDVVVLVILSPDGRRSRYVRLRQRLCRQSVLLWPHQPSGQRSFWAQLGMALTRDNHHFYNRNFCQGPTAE
Test: HEK-TLR9 NF-κB-luciferase reporter, ODN2006 stimulation
Type: cell-based
Settings: for inhibition of TLR9 sensing of ODN2006 (in words) / TLR9-500 nM: averaged NF-κB-Luciferase relative to ODN2006: HEK-TLR9; for inhibition of TLR9 sensing of ODN2006 (in words): 500 nM 2′OMe or PS oligos, 200 nM ODN2006; for TLR9-500 nM: averaged NF-κB-Luciferase relative to ODN2006: 500 nM ASO 45 min, then 200 nM ODN2006 overnight, percentage of ODN2006 only; for TLR9 100 nM (averaged NF-κB-Luciferase level relative to ODN2006 condition): ASO 100 nM; for TLR9 100 nM (averaged NF-κB-Luciferase level relative to ODN2006 condition) / TLR9 500 nM (averaged NF-κB-Luciferase level relative to ODN2006 condition): relative to ODN2006 only, given as fraction; for TLR9 500 nM (averaged NF-κB-Luciferase level relative to ODN2006 condition): ASO 500 nM

Substance | inhibition of TLR9 sensing of ODN2006 (in words) | inhibition of TLR9 sensing of ODN2006 (in words) (listed as ASO2139) | TLR9-500 nM: averaged NF-κB-Luciferase relative to ODN2006 [%] | TLR9 100 nM (averaged NF-κB-Luciferase level relative to ODN2006 condition) | TLR9 500 nM (averaged NF-κB-Luciferase level relative to ODN2006 condition)
mC*mU*mU*mG*mU*G*A*A*A*A*G*A*T*T*A*mU*mC*mU*mU*mC (mC*mU*mU*mG*mU*dG*dA*dA*dA*dA*dG*dA*dT*dT*dA*mU*mC*mU*mU*mC) [[CDKN2B-AS1]2139] | strongly inhibited TLR9 | significantly increased TLR9 inhibition | 34.91 |  | 
CCTTGCACGTGGCTTC (antisense; LNA-modified, pattern not given here) [EGFR-1013 LNA V1] |  |  |  | 0.814 | 0.519
CACTTCGTGGGGTCCT (antisense; LNA-modified, pattern not given here) [HPRT LNA-664 V1] |  |  |  | 0.215 | 0.074
mA*mA*mA*mG*mC*A*G*T*C*T*C*C*A*T*G*mU*mC*mC*mC*mA (mA*mA*mA*mG*mC*dA*dG*dT*dC*dT*dC*dC*dA*dT*dG*mU*mC*mC*mC*mA; antisense) [[CDKN2B-AS1]2237] |  |  | 87.17 |  | 
mA*mG*mC*mA*mG*T*C*T*C*C*A*T*G*T*C*mC*mC*mA*mG*mG (AGCAGTCTCCATGTCCCAGG; antisense; sugars from the 5' end m5 d10 m5, all phosphorothioate, methylation of C not given here) [[CDKN2B-AS1]2235] |  |  | 73.18 |  | 
ATCTGGCAGCCCATCA (antisense; LNA-modified, pattern not given here) [CTNN2B-2516 LNA V1] |  |  |  | 1.248 | 0.603
CCAACACTTCGTGGGG (antisense; LNA-modified, pattern not given here) [HPRT LNA-668 V1] |  |  |  | 1.065 | 0.610
AACACTTCGTGGGGTC (antisense; LNA-modified, pattern not given here) [HPRT LNA-666 V1] |  |  |  | 1.104 | 0.475
CTTCGTGGGGTCCTTT (antisense; LNA-modified, pattern not given here) [HPRT LNA-662 V1] |  |  |  | 0.557 | 0.240
AACCCCTTTCACCATC (antisense; LNA-modified, pattern not given here) [MB21D1-689 LNA KL] |  |  |  | 0.586 | 0.076
CGTATTATAGCCGATT (antisense; LNA-modified, pattern not given here) [NC1 LNA PS 3-10-3] |  |  |  | 0.933 | 0.558
GGAGGTCTTGGCTTCG (antisense; LNA-modified, pattern not given here) [MB21D1-526 LNA V1] |  |  |  | 0.912 | 0.674
TGTCCTTGCACGTGGC (antisense; LNA-modified, pattern not given here) [EGFR-1016 LNA V1] |  |  |  | 1.020 | 0.853
ACCACGTCTGCTCTAA (antisense; LNA-modified, pattern not given here) [CAMSAP1-1635 LNA KL] |  |  |  | 0.842 | 0.162
mG*mU*mC*mU*mC*C*A*T*G*T*C*C*C*A*G*mG*mC*mC*mU*mC (mG*mU*mC*mU*mC*dC*dA*dT*dG*dT*dC*dC*dC*dA*dG*mG*mC*mC*mU*mC) [[CDKN2B;AS1]2231] |  |  | 77.80 |  | 
CCCACTTGGCAGACCA (antisense; LNA-modified, pattern not given here) [CTNN2B-1576 LNA V1] |  |  |  | 0.381 | 0.656
GTGATGGCCTCCCATC (antisense; LNA-modified, pattern not given here) [HPRT LNA-333 V1] |  |  |  | 0.890 | 0.694
GAAAGGTTATGCAAGG (antisense; LNA-modified, pattern not given here) [CTNN2B-916 LNA KL] |  |  |  | 0.748 | 0.606
TGGTGGCCACCCATCT (antisense; LNA-modified, pattern not given here) [CTNN2B-2479 LNA V1] |  |  |  | 1.136 | 1.117
GTGATCTTGACATGCT (antisense; LNA-modified, pattern not given here) [EGFR-2790 LNA KL] |  |  |  | 1.001 | 0.181
